Publication PMC8419995, “In vitro and in vivo efficacy of thiacloprid against Echinococcus multilocularis” (Parasites & Vectors, 2021)
Like-named read-outs stand apart in the source and are kept apart here.

What was measured:
[1] = tested on: Reuber rat hepatoma (RH) cells; test: alamarBlue cytotoxicity assay, RH cells; format: cell-based; details: 120 h, 5 days
Procedure: An alamarBlue assay was used to assess the toxicity of thiacloprid to confluent and pre-confluent mammalian cells in vitro [29]. Human foreskin fibroblasts (HFF, Procell) and rat hepatoma cells (RH, Procell) were seeded into 96-well cell culture plates in DMEM supplemented with 10% FBS and 1% penicillin–streptomycin at 37 °C and 5% CO2. For detecting the growth inhibitory effects of confluent cells, HFF and RH cells were seeded at 10,000 cells per well and 50,000 cells per well, respectively. After overnight culture, thiacloprid or PZQ was added and diluted in serial concentrations (0, 0.6, 1.2, 2.5, 5, 10, 20, 40, 80 and 160 μM). For detecting growth inhibitory effects on proliferating cells, cells were seeded at 1000 (HFF) and 5000 (RH) cells per well. Thiacloprid was added after 5 h of cell attachment. To measure the viability of the cells after treatment for 5 days, the alamarBlue assay was employed and viability calculated as described previously.

[2] = tested on: E. multilocularis protoscoleces and germinal cells; test: Glucose consumption (2-deoxyglucose uptake); format: cell-based, Echinococcus multilocularis
Procedure: Glucose consumption in E. multilocularis protoscoleces and germinal cells was detected using the Screen Quest Colorimetric Glucose Uptake Assay Kit (AAT Bioquest, Sunnyvale, CA, USA). The newly separated protoscoleces were washed twice with Krebs–ringer phosphate HEPES (KRPH) buffer and then resuspended in 1 ml glucose uptake buffer for 1 h. Each well contained about 200 protoscoleces. Isolated E. multilocularis germinal cells were resuspended with serum-free DMEM and cultured overnight in nitrogen at 37 °C. Germinal cells were then washed twice with KPRH buffer and resuspended in 90 μl glucose uptake buffer for 1 h. Subsequently, the protoscoleces and germinal cells were added with 10 μl thiacloprid (5 μM) for 1 h, and treated with 10 μl 2-deoxyglucose (2DG) for 1 h. The germinating cells treated with thiacloprid were labeled with mitochondria red fluorescent probe (Beyotime, Shanghai, China) and the percentage of living cells was measured by flow cytometry. The protoscoleces and germinal cells were washed twice with KRPH buffer and then lysed with 25 μl acidic lysis buffer in an Eppendorf tube (EP) for 30 min. A neutralizing buffer was added to each well and left at room temperature for 20 min to neutralize the lysate. […] Lastly, the mixture was transferred to a 96-well cell culture plate and the absorbance was measured at 570 nm using an Infinite M200 PRO reader (Tecan). […]

[3] = set-up: method as in PMID 32229153; details: mice; cited from earlier work
[4] = set-up: method as in PMID 21786385; details: cited from earlier work

N#C/N=C1\SCCN1Cc1ccc(Cl)nc1 [thiacloprid]
IC50 ([1]; confluent cells, read-out: IC50 on confluent RH cells): 91.4 ± 1.33 µM
IC50 ([1]; pre-confluent cells, read-out: IC50 on pre-confluent RH cells): 74.3 ± 10.8 µM
Uptake of 2-DG by protoscoleces and germinal cells ([2]; 5 μM, 1 h): reduced uptake
Viability of protoscoleces and germinal cells ([2]; treatment for 1 h): not affected
Dose that induced obvious hepatocellular hypertrophy and cytoplasm degeneration [3]: more than 108 mg/kg
Dose that can cause hepatocellular necrosis and hydropic degeneration [4]: 22.5 mg/kg
